Here are results for twelve compounds from US5434188A, “1-ether and 1-thioether-naphthalene-2-carboxamides as inhibitors of cell adhesion and as inhibitors of the activation of HIV” (Warner-Lambert Company, priority 1994, dated 1995).

The test system of experiment [1] is HIV-1 activation in OM-10.1 cells. The note with it: poster NCDDG/AIDS 1991; cited from earlier work.
Experiment [2] deals with CD4 down regulation and viral expression in HIV-infected cells. The note with it: Hamamoto, et al. 1989; cited from earlier work.
In experiment [3] the test system is human neutrophil adhesion to TNF-α stimulated human umbilical vein endothelial cells. The experiment is described as follows: Modified method: inhibition of human neutrophil adhesion to TNF-α stimulated HUVEC (ECA), calcein-labeled neutrophils. The experiment is classed as cell-based. The settings on record: for inhibition at 100 µM / inhibition at 33 µM: Neutrophil, neutrophils labeled with calcein; for inhibition at 100 µM: footnote d: 100 μM; for inhibition at 33 µM: footnote c: 33 μM. The method, then:
MODIFIED METHOD FOR DETERMINING THE INHIBITION OF HUMAN NEUTROPHIL ADHESION TO TNF-α STIMULATED HUMAN UMBILICAL VEIN ENDOTHELIAL CELLS
Second passage HUVEC (Clonetics Corporation, San Diego, Calif., CC-2617) were seeded into Corning (Corning glass works, Corning, N.Y.) 96-well cell culture plates at approximately 5×10^3 cells/well and grown to confluency in supplemented endothelial basal medium (EBM, MCDB-131, Clonetics, 10 ng/mL EGF, 1 μg/mL hydrocortisone, 0.4% bovine brain extract, 5% Fetal Bovine Serum). One day prior to running the assay, typically 3 days postseeding, the cultures were re-fed with 0.2 mL/well supplemented EBM (S-EBM).
Preparation of Test Compounds
Test compounds were prepared as 10 mL stock solutions at a concentration of 1.0 mM. The compound were initially solubilized in 0.1 mL DMSO followed by the addition of 9.9 mL S-EBM. The drug preparations were then diluted in one step to a concentration of 66.6 μM. Solubilizations and dilutions were performed in polystyrene containers.
Recombinant human tumor necrosis factor-α(TNF, Genzyme, Boston, Mass., code TNF-H) was prepared at 400 U/mL in S-EBM. Stock TNF was prepared to 20,000 U/mL in Delbecco's phosphate buffered saline (PBS, Gibco, Grand Island, N.Y.) plus 0.1% BSA and stored at -70° C. HUVEC were washed one time with 0.2 mL warm unsupplemented EBM and then stimulated for 4 hours at 37° C. with 200 U/mL TNF in the presence of 33.3 μM test compound. This was accomplished by adding 0.1 mL of 400 U/mL TNF and 0.1 mL 66.6 μM test compound. These additions were done slowly as to not disrupt the HUVEC monolayer. Each compound was tested in six wells. Unstimulated (Vehicle control) and TNF-stimulated without test compound treatments were also run in each plate.
One hour prior to adding the neutrophils to the HUVEC, neutrophils (5×10^6/ mL) were labeled for 30 minutes at 37° C. with 5 μM calcein-AM (Molecular Probes, Eugene, Oreg.) in Hanks' balanced salt solution plus 0.45% BSA. Stock calcein was prepared to 5 mM in anhydrous DMSO and stored desiccated at -20° C. At the end of the incubation the cells were washed two times in cold HBSS and resuspended to a final concentration of 1×10^6 cells/mL in unsupplemented EBM.
Addition of Neutrophils to HUVEC
At the end of the 4-hour stimulation and immediately prior to the addition of the neutrophils to the HUVEC monolayer, the plates were washed with 0.2 mL warm unsupplemented EBM to remove TNF and drug. Neutrophils (1×10^5 cells) were slowly added to each of the treated wells and incubated for 30 minutes at 37° C. At the end of the incubation the plates were washed two times with 0.2 mL warm unsupplemented EBM followed by a final addition of 0.1 mL for plate scanning.
Determination of Relative Fluorescence
The relative fluorescence was determined using a Millipore Cytofluor 2300 system (excitation=480, emission=530, sensitivity=4).
Results were expressed as means of percent inhibition of TNF-stimulated adherence, using the following equation: [formula]
Some of these compounds were tested at concentrations of 33.3 μM, 10.0 μM, 3.3 μM, and 1.0 μM to determine IC50 values. Linear regression analysis of the means of the inhibition values were used to determine the IC50.

Experiment [4] concerns ICAM-1. The experiment is described as follows: ELISA of ICAM-1 on TNFα stimulated HUVEC. The experiment is classed as cell-based, human. The note with it: first of the two values. The method, then: (§1) Murine monoclonal anti-human ICAM-1 (R & D Systems, Cat No. BBA-4) or murine monoclonal anti-human E-selectin (R & D, Cat No. BBA-2) dissolved in DMEM/2%BSA were added to each well at 0.5 μg/mL and allowed to incubate at 37° C. for 2 hours. HUVEC monocultures were then washed 4 times with DMEM/2%BSA. A peroxidase conjugated sheep anti-mouse IgG (Cappel) was added (1:3,000 dilution) and allowed to incubate 1 hour at 37° C. The cells were then washed 4 times with DMEM. A color reagent (Biorad) was added to the fixed cells and incubated 15 minutes at room temperature. The reaction was stopped with a 2% oxalic acid solution and the absorbance read at 414 nm on a titertek plate reader.
(§2) Compounds were dissolved in DMSO at a concentration of […] and diluted with media to obtain final testing concentrations. HUVECs received compound dissolved in media 30 minutes before the TNFα challenge. The absorbance of non-stimulated HUVECs was subtracted from the absorbance values of TNFα stimulated cells before percent inhibition was determined. Percent inhibition was determined by comparing the absorbance of vehicle treated cells with drug treated cells. IC50 s were determined using linear regression analysis.
A general note: In an ELISA, binding on a coated surface is turned into a signal by an enzyme label.

Experiment [5] has as its system E-selectin. The experiment is described as follows: ELISA of E-selectin on TNFα stimulated HUVEC. The experiment is classed as cell-based, human. The note with it: second of the two values. The procedure: as §1, §2
Experiment [6] deals with HIV-1 activation in OM-10.1 cells. The experiment is described as follows: Inhibition of activation of latent HIV-1 in the OM-10.1 cell line (TNF-α induced). Format: cell-based. The note with it: Human immunodeficiency virus 1, read-out: OM-10n (IC50 μM). An excerpt:
The cellular pathways involved in mediating the activating signal from the plasma membrane to the integrated virus, resulting in HIV-1 expression, are much less clear. Recently, the development of a reliable and simple system for evaluating compounds that could prevent activation of latent HIV was reported at the National […] (NCDDG)/AIDS by P. Feorino, S. T. Butera, T. M. Folks, and R. F. Schinazi, Nov. 3-7, 1991. The assay system employed the OM-10.1 cell line, a unique chronically-infected promyelocytic clone which remains CD4+ until HIV-1 activation with tumor necrosis factor-α. The expression of CD4+ on the cell surface and the activity of reverse transcriptase are used as markers for quantitating viral expression. Alternatively, other HIV markers, such as protease activity, which are known to those of skill in the art can be used. OM-10.1 cells remain CD4^+ until viral activation and respond to tumor necrosis factor induction, and therefore, these cultures are used to conveniently and rapidly examine pharmacologics for an ability […] down modulation (decrease in expression of CD4^+ on the cell surface) and HIV-1 expression.
A variety of compounds known to have antiviral properties against either acutely or chronically infected cells were evaluated for their ability to inhibit HIV expression in these OM-10.1 cells. […]

In experiment [7] the test system is human neutrophil adhesion to TNF-α, IL-α, and LPS-stimulated human umbilical vein endothelial cells. Put plainly: Inhibition of human neutrophil adhesion to stimulated human umbilical vein endothelial cells (ECA), 51Cr-labeled neutrophils. Format: cell-based. The note with it: footnote b: 100 μM, neutrophils labeled with Cr. An excerpt: METHOD FOR DETERMINING THE INHIBITION OF HUMAN NEUTROPHIL ADHESION TO TNF-α, IL-α, AND LPS-STIMULATED HUMAN UMBILICAL VEIN ENDOTHELIAL CELLS (ECA)
Neutrophils were isolated from anticoagulant-treated venous blood obtained from healthy human volunteers according to the method of Ferrante and Thong (J. Immunol. Methods 24:389-393 (1978)). The cell preparations consisted of greater than 98% neutrophils.
Second passage human umbilical vein endothelial cells (HUVEC) (Clonetics, San Diego, Calif.) were seeded into Falcon 24-well cell culture plates (Becton Dickinson, Lincoln Park, N.J.) at approximately 2×10^4 cells per well. The cells were grown to confluent monolayers in endothelial basal medium (EBM, Clonetics) supplemented with 5% fetal calf serum (Hyclone Laboratories, Logan, Utah), 10 ng/mL EGF, 1 μg/mL hydrocortisone, 0.4% bovine brain extract (Clonetics) in 5% CO2 at 37° C. […]
Stimulation of HUVEC with tumor necrosis factor-α (TNF-α) (Genzyme, Cambridge, Mass.), interleukin (IL-1α) (Genzyme) or E. coli 0111:B4 lipopolysaccharide (LPS) (Sigma) in the presence or absence of drug was initiated 4 hours prior to the addition of neutrophils. […] Lysates were collected and the radioactivity in each well was determined by gamma ray spectroscopy. […]

pIC50: −log10 of the molar value.

As to `Cc1cn([C@H]2C[C@H](F)[C@@H](CO)O2)c(=O)[nH]c1=O` [3'-fluoro-3'-deoxythymidine (FLT), 3'-fluoro-3'-deoxythymidine], in experiment [1], the “inhibition of HIV-1 activation, in words” value is reported as “modest inhibitors of the activation of HIV-1”.
As for `CCCCCCCCCCCCCC(=O)O[C@@H]1[C@@H](C)[C@@]2(O)[C@@H](C=C(CO)C[C@]3(O)C(=O)C(C)=C[C@@H]23)[C@@H]2C(C)(C)[C@]12OC(C)=O` [12-0-tetradecanoylphorbol-13-acetate], in experiment [2], the “effect on CD4 down regulation and HIV expression, in words” value is “mediates CD4 down regulation and viral expression in HIV-infected cells”.
`COc1ccc2ccc(C(N)=O)c(OC(C)C)c2c1` [Example 1, 7-Methoxy-1-(1-methylethoxy)-2-naphthalenecarboxamide]: in experiment [3] (footnote a, neutrophil adhesion to stimulated HUVEC, neutrophil label not given), the pIC50 – broadly, −log10 of the IC50, conventionally taken in molar units – was 4.96. Further, in experiment [4], the “ICAM/ESEL % Inhib @ 30 μM: ICAM” value was determined as 77%. Also, the “ICAM/ESEL % Inhib @ 30 μM: ESEL” value in experiment [5] is given as 84%. In experiment [6], the half-inhibitory concentration (IC50) (usually the point on the concentration scale where inhibition reaches its midpoint) was 2.5 µM.
Regarding `CCNC(=O)c1ccc2ccc(OC)cc2c1OC(C)C` [Example 2, N-Ethyl-7-methoxy-1-(1-methylethoxy)-2-naphthalenecarboxamide], in experiment [3], the inhibition (usually the change of the read-out against control, counted positive when it falls) at 100 µM was 73%.
For the compound `COc1ccc2ccc(C(=O)NC(C)C)c(OC(C)C)c2c1` [Example 3, 7-Methoxy-1-(1-methylethoxy)-N-(1-methylethyl)-2-naphthalenecarboxamide], in experiment [3], the inhibition at 33 µM is 64%.
On to `COc1ccc2ccc(C(=O)NCc3ccccc3)c(OC(C)C)c2c1` [Example 4, 7-Methoxy-1-(1-methylethoxy)-N-(phenylmethyl)-2-naphthalenecarboxamide], for which, in experiment [3], the inhibition at 100 µM is 14%.
On to `CC(C)Oc1ccc2ccc(C(N)=O)c(OC(C)C)c2c1` [Example 5, 1,7-Bis-(1-methylethoxy)-2-naphthalenecarboxamide], for which the inhibition at 100 µM in experiment [7] stood at 45%. Also, the IC50 in experiment [6] was 0.5 µM.
On to `COc1ccc2c(OC(C)C)c(C(N)=O)ccc2c1` [Example 6, 6-Methoxy-1-(1-methylethoxy)-2-naphthalenecarboxamide], for which the inhibition at 33 µM in experiment [3] was 9%.
Take `COc1ccc2ccc(C(N)=O)c(OC)c2c1` [Example 7, 1,7-Dimethoxy-2-naphthalenecarboximide]: the inhibition at 33 µM in experiment [3] was 15%.
Regarding `CN[C@@H]1C[C@H]2O[C@@](C)([C@@H]1OC)n1c3ccccc3c3c4c(c5c6ccccc6n2c5c31)C(=O)NC4` [Staurosporine, staurosporine], in experiment [2], the “effect on CD4 down regulation and HIV expression, in words” value was “effective TPA inhibitor for both of these actions”.
In the case of `CC(=O)N(O)CCCCCNC(=O)CCC(=O)N(O)CCCCCNC(=O)CCC(=O)N(O)CCCCCN` [desferrioxamine], in experiment [1], the “inhibition of HIV-1 activation, in words” value is “modest inhibitors of the activation of HIV-1”.
“interferon Y: modest inhibitor of the activation of HIV-1”: the “inhibition of HIV-1 activation, in words” value in experiment [1] is “modest inhibitors of the activation of HIV-1”.
